Source: ChEMBL document CHEMBL5532715, “Rogersonins C-F, 9H-Imidazo[2,1-i]purine-Incorporating Adenine-Polyketide Hybrids from an Ophiocordyceps-Associated Clonostachys rogersoniana” (2024)
The source made the active and inactive calls. The rule behind the calls is not given here.

Experiments:
[1] = Downregulation of cell surface PD-L1 expression in human MDA-MB-231 cells assessed as mean fluorescence intensity at […] incubated for 24 hrs by phycoerythrin staining based flow cytometry analysis (reference value: 1156); type: functional
[2] = test system: MDA-MB-231; test: Antiproliferative activity against human MDA-MB-231 cells incubated for 72 hrs by MTT assay; type: functional, cell-based
[3] = test system: MCF7; test: Antiproliferative activity against human MCF7 cells incubated for 72 hrs by MTT assay; type: functional, cell-based
[4] = test system: A549; test: Antiproliferative activity against human A549 cells incubated for 72 hrs by MTT assay; type: functional, cell-based
[5] = Downregulation of cell surface PD-L1 expression in human MDA-MB-231 cells assessed as mean fluorescence intensity at 5 uM incubated for 24 hrs by phycoerythrin staining based flow cytometry analysis (reference value: 1156); type: functional
[6] = Downregulation of cell surface PD-L1 protein expression in human MDA-MB-231 cells assessed as test to control ratio at 5 uM incubated for 24 hrs by Western blot analysis; type: functional
[7] = Downregulation of cell surface PD-L1 protein expression in human A549 cells assessed as test to control ratio at 5 uM incubated for 24 hrs by Western blot analysis; type: functional
[8] = test system: MDA-MB-231; test: Effect on CD274 mRNA expression in human MDA-MB-231 cells at 5 to 10 uM hrs by real-time quantitative-PCR analysis; type: functional, cell-based; details: dose 5-10 µM
[9] = test system: A549; test: Effect on CD274 mRNA expression in human A549 cells at 5 to 10 uM hrs by real-time quantitative-PCR analysis; type: functional, cell-based; details: dose 5-10 µM
[10] = Downregulation of cell surface PD-L1 expression in human MDA-MB-231 cells assessed as mean fluorescence intensity at 10 uM incubated for 24 hrs by phycoerythrin staining based flow cytometry analysis (reference value: 1156); type: functional
[11] = Downregulation of cell surface PD-L1 protein expression in human MDA-MB-231 cells assessed as test to control ratio at 10 uM incubated for 24 hrs by Western blot analysis; type: functional
[12] = Downregulation of cell surface PD-L1 protein expression in human A549 cells assessed as test to control ratio at 10 uM incubated for 24 hrs by Western blot analysis; type: functional

SMILES | Flu intensity [1] | Activity [2] | Activity [3] | Activity [4] | Flu intensity [5] | T/C [6] | T/C [7] | Activity [8] | Activity [9] | Flu intensity [10] | T/C [11] | T/C [12]
CN(C)C(=N)NC(=N)N [METFORMIN] | 1081 | – | – | – | – | – | – | – | – | – | – | –
C[C@@H]1OC(=O)/C=C/[C@@H](O)CC[C@H](C)OC(=O)[C@H](n2cnc3ncn4c5c(nc4c32)[C@H](C)OC(=O)/C=C/[C@@H](O)CC[C@H](C)OC(=O)C5)CC1=O | – | inactive | inactive | inactive | – | – | – | – | – | – | – | –
C[C@@H]1OC(=O)/C=C/[C@@H](O)CC[C@H](C)OC(=O)Cc2c1nc1c3ncn([C@@H]4O[C@H](CO)[C@@H](O)[C@H]4O)c3ncn21 | – | inactive | inactive | inactive | 897 | 0.89 | 0.6 | inactive | inactive | 820 | 0.54 | 0.32
CO[C@@H]1[C@H](O)[C@@H](CO)O[C@H]1n1cnc2c1ncn1c3c(nc21)[C@H](C)OC(=O)/C=C/[C@@H](O)CC[C@H](C)OC(=O)C3 | – | inactive | inactive | inactive | – | – | – | – | – | – | – | –
C[C@@H]1OC(=O)/C=C/[C@@H](O)CC[C@H](C)OC(=O)[C@H](n2cnc3c2ncn2c4c(nc32)[C@H](C)OC(=O)/C=C/[C@@H](O)CC[C@H](C)OC(=O)C4)CC1=O | – | inactive | inactive | inactive | – | – | – | – | – | – | – | –
